Test results published in patent US11234968B2, “Use of VCP inhibitor and oncolytic virus in the preparation of an anti-tumor drug” (priority 2016, dated 2022).
Values joined by “and” are separate entries in the source; they are usually repeats but may differ in a detail not shown here. Equal entries are not always repeated.

Experiments:
[1] = tested on: human liver cancer cell Hep3B; assay: Morphological observation by phase contrast microscope (Example 1); format: cell-based; settings: Eeyarestatin I 5 μM and/or M1 virus MOI=0.001; 48 hours after treatment
Procedure: b) Cell treatment and morphological observation: The cells in exponential growth phase were selected and added into a DMEM complete culture medium (containing 10% fetal bovine serum, 1% penicillin/streptomycin (Life Technologies)) to prepare a cell suspension. The cells were inoculated into a 24-well culture plate at a density of 2.5×10^4/well. Each well was then treated by addition of Eeyarestatin I (5 μM), M1 virus (MOI=0.001) or Eeyarestatin I (5 μM) plus M1 virus (MOI=0.001) or left untreated as a control.

[2] = tested on: human liver cancer cell Hep3B; assay: MTT survival rate of Hep3B cells, VCP inhibitor and/or M1 virus (Example 2); format: cell-based
Procedure: b) Reaction of MTT (3-(4,5-dimethylthiazol-2-yl)-2,5-diphenyltetrazolium bromide) with succinate dehydrogenase in the cells as follows: 48 hours after culture, 20 μl MTT (5 mg/ml) was added into each well, and was incubated for further 4 hours.
c) Dissolution of formazan particles formed in the cells was accomplished as follows: the supernatant was carefully sucked off, 100 μl/well DMSO was added to dissolve the formed crystals, and was shaken in a microoscillator for 5 minutes. Then, the optical density (OD value) of each well was detected in an enzyme linked detector at a wavelength of 570 nm. The experiments were repeated for 3 times for each group. The survival rate of the cells=OD value of the drug treatment group/OD value of the control group×100%.
Single and double asterisks in FIGS. 2(A) and 2(B) indicate results with one way ANOVA analysis showing a statistical difference with a single asterisk (*) indicating P<0.05 and a double asterisk (**) indicating P<0.01.

[3] = tested on: endoplasmic reticulum stress markers (IRE1, XBP1(S), BiP, p-PERK, p-eIF2a, ATF6, poly-ub; caspase-12, CHOP, p-JNK); assay: Western blot of endoplasmic reticulum stress markers and ER stress-associated apoptosis in Hep3B (Example 5); format: cell-based, human; settings: Eeyarestatin I 5 μM and/or M1 virus MOI=0.001
Procedure: The cells in the exponential growth phase were selected and added into a DMEM complete culture medium to prepare a cell suspension. The cells were inoculated into a 60 mm culture dish at a density of 1×10^6. After 12 hours the cells were completely adherent to the wall. […] The dose was used as follows: M1 virus (MOI=0.001) that infected cells; Eeyarestatin I (5 μM).
After the time of drug treatment was set up, the protein samples were collected to carry out the Western blot for detecting the marker of endoplasmic reticulum stress (IRE1 XBP1(S), BiP, p-PERK, p-eIF2a, ATF6, poly-ub); and the activation of the pathway of endoplasmic reticulum stress-associated apoptosis (caspase-12, CHOP, p-JNK).

Compound | morphology of the cells [1] | reduction in cell number ([2]; 5 μM alone) [%] | survival rate of tumor cells ([2]; 5 μM alone, 48 hours, MTT) | endoplasmic reticulum stress-associated markers and apoptosis pathway [3] | relative survival rates ([2]; CB-5083 alone compared to combination with M1 (MOI=0.001), 0.124 to 2 μM, FIG. 2(B))
CC1(C)C(N(O)C(=O)Nc2ccc(Cl)cc2)N(c2ccc(Cl)cc2)C(=O)N1CC(=O)N/N=C/C=C/c1ccc([N+](=O)[O-])o1 (centres unmarked) [Eeyarestatin I] | morphology of the cells was not changed significantly | 12.8 | 87.2% and 78.2% | induce the increase of endoplasmic reticulum stress-associated markers such as IREI, XBPI (S), p-PERK, p-eIF2a | 
Cc1cc2c(C(N)=O)cccc2n1-c1nc2c(c(NCc3ccccc3)n1)COCC2 [CB-5083] |  |  |  |  | significantly higher relative survival rates
